Source: patent US20200008825A1, “SUSTAINED INTRATONSILLAR DRUG DELIVERY WITH NEEDLE ARRAY” (SOUTHERN RESEARCH INSTITUTE, priority 2017, published 2020)

System: CD3 positive T-cells in rabbit tonsils
Experiment: percentage of CD3 positive T-cells in rabbit tonsils injected with mometasone versus control (FIG. 11)
Format: in vivo
Description: FIG. 11 includes a graph illustrating a percentage of cluster-of-differentiation-3 (CD3) T-cell co-receptors in a rabbit when treated with mometasone versus a control. Referring now to FIG. 11, a graph is shown illustrating a percentage of cluster-of-differentiation-3 (CD3) T-cell co-receptors in a rabbit when treated with mometasone versus a control. In immunology, the CD3 T-cell co-receptor helps to activate both the cytotoxic T-Cell (CD8+ naive T cells) and also T helper cells (CD4+ naive T cells). CD3 consists of a protein complex and is composed of four distinct chains.

C[C@@H]1C[C@H]2[C@@H]3CCC4=CC(=O)C=C[C@]4(C)[C@@]3(Cl)[C@@H](O)C[C@]2(C)[C@@]1(O)C(=O)CCl [mometasone]
CD3 positive T-cells (percentage): significantly lower
